The structures appear in SMILES notation. pIC50: −log10 of the molar value. Read-outs that look alike come from different tables or passages of the source. A value given as a limit tells only on which side of the number the result lay.

Type in all cases: in vitro ADME
Data set [1] has as its target CYP3A4/5 (Homo sapiens, UniProt P08684). The experiment in a line: Direct and time-dependent CYP inhibition, pooled human liver microsomes. How it is done: “mM^”=millimolar. CYP induction was evaluated using cultured human hepatocytes (from 3 donors) treated once daily for 3 days with RE/R concentrations to […].
The competitive inhibition of specific CYP isoforms was investigated for RVT-1201 and KAR5417 in human liver microsomes (HLM) (XT155056). Of the […] evaluated in vitro (CYP1A2, CYP2B6, CYP2C8, CYP2C9, CYP2D6, CYP3A4, CYP3A5), RVT-1201 IC50 estimates were determined for CYP2B6, CYP2C8 and CYP3A4 only. […] For each IC50 estimate, substrate concentration and Km were used to estimate RVT-1201 and KAR5417 Ki.
For orientation: Liver microsomes are a subcellular fraction often used to study metabolism.

Data set [2] has as its target T1, CYP1A2 (Homo sapiens, UniProt P05177).
T1 sequence (P05177 1-516): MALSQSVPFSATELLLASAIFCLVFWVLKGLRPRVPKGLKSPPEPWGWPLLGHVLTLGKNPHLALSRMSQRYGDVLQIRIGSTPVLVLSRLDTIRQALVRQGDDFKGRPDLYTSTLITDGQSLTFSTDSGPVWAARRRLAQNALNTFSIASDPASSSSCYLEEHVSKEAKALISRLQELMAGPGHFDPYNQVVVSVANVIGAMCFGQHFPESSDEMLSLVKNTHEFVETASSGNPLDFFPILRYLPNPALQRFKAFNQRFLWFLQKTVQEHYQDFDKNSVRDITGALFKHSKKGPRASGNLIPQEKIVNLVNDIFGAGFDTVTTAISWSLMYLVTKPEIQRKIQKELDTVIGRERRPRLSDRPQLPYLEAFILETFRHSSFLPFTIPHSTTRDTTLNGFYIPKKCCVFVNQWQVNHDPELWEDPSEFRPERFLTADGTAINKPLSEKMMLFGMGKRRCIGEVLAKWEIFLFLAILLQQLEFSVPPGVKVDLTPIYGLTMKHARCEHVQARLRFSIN
The experiment in a line: In vitro CYP substrate assessment (victim potential).

Data set [3] has as its target T2, OAT1 (Homo sapiens, UniProt Q4U2R8).
T2 sequence (Q4U2R8 1-563): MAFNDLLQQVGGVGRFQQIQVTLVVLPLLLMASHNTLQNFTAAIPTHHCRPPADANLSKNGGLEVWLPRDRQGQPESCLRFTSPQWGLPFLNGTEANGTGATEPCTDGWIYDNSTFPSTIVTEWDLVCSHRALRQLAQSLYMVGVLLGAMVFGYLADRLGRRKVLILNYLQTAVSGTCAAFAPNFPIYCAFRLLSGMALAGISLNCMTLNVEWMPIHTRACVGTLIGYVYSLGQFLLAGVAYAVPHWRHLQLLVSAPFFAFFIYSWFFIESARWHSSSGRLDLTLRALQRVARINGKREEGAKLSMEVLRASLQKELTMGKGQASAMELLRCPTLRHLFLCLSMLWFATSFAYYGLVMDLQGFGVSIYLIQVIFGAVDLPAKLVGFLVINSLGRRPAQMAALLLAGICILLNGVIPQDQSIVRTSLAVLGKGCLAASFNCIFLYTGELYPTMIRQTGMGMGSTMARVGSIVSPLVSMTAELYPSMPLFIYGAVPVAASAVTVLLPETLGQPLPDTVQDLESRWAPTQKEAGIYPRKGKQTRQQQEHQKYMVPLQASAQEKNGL
Description: Transporter inhibition, transporter-expressing in vitro system. The settings on record: for Potential for interaction? (transporter inhibitor), OAT1: predicted @ 600 mg BID. Here is the method: (§1) The competitive inhibition of specific transporters was investigated for RVT-1201 and KAR5417 in transporter-expressing in vitro systems (XT158039). Inhibition of P-gp was evaluated using a Caco-2 cell line with digoxin as probe substrate. Inhibition of OATP1B1 and OATP1B3 was evaluated using a HEK293 cell line expressing these transporters with estradiol-17β-glucuronide as probe substrate. In addition, inhibition of other transporters was also investigated (BCRP, OAT1, OAT3, OCT2, MATE1, MATE2-K). The IC50 estimates for P-gp (RVT-1201) and OATP1B1/3 (RVT-1201 and KAR5417) supported further evaluation of inhibition DDI potential using the PBPK model. For each IC50 estimate, substrate concentration and Km were used to estimate RVT-1201 and KAR5417 Ki with Equation 1 (Cheng and Prusoff, 1973).

Data set [4] addresses MATE2-K (Homo sapiens, UniProt Q86VL8). The description is as above. The settings on record: for Potential for interaction? (transporter inhibitor), MATE2-K: predicted @ 600 mg BID. Here is the method: as §1
The target in data set [5] is T3, MATE1 (Homo sapiens, UniProt Q96FL8).
T3 sequence (Q96FL8 1-570): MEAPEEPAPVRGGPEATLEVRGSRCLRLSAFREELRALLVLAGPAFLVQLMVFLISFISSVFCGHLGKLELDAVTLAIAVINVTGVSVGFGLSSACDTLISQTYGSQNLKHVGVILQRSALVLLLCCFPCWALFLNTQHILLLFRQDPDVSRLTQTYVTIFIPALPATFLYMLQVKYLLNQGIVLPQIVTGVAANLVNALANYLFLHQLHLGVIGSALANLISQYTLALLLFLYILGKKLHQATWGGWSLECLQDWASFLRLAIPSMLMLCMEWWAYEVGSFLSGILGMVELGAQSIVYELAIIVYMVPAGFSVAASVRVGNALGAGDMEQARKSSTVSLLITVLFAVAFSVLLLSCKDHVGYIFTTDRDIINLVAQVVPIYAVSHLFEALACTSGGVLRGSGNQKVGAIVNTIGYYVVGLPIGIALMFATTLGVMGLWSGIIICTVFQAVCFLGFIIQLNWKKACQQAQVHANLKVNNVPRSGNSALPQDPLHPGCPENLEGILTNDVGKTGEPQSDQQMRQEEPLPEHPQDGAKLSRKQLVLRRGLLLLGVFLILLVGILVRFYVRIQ
Described as above. The settings on record: for Potential for interaction? (transporter inhibitor), MATE1: predicted @ 600 mg BID. Here is the method:
as §1

Setting [6] is: predicted @ 600 mg BID, testosterone.

Chain of MATE2-K (Q86VL8 1-566 isoform Q86VL8-3): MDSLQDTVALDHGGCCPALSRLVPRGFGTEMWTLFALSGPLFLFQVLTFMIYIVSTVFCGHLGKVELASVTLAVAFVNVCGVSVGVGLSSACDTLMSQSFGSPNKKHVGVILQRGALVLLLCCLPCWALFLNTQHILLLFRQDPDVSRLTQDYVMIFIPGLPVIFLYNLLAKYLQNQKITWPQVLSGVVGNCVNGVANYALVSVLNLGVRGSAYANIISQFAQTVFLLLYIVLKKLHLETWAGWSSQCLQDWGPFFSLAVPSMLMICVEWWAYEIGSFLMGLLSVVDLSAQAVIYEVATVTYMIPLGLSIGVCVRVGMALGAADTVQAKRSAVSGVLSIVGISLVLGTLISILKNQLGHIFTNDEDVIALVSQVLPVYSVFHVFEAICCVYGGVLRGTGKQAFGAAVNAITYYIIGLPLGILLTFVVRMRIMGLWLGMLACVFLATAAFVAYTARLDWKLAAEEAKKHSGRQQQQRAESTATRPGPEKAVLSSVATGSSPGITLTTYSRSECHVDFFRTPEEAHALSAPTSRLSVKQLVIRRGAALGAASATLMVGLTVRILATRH
Chain of CYP3A4/5 (P08684 2-503): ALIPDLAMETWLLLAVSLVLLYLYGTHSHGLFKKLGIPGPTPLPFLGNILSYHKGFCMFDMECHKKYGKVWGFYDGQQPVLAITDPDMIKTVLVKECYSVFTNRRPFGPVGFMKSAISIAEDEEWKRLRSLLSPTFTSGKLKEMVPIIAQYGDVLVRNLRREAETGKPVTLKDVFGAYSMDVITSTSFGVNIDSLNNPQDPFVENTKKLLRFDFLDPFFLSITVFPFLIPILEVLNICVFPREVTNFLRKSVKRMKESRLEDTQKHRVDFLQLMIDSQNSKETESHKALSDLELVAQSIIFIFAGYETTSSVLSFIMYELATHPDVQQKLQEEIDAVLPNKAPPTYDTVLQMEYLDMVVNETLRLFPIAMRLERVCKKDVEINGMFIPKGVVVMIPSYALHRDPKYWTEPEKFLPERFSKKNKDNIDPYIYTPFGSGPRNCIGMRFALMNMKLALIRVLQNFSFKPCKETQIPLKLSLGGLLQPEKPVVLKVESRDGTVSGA

Consider `CCOC(=O)[C@@H]1CC2(CCN(c3cc(O[C@H](c4ccc(Cl)cc4-c4ccccc4)C(F)(F)F)nc(N)n3)CC2)CN1` [Rodatristat ethyl, (S)-ethyl 8-(2-amino-6-((R)-1-(5-chloro-[1,1′-biphenyl]-2-yl)-2,2,2-trifluoroethoxy)pyrimidin-4-yl)-2,8-diazaspiro[4.5]decane-3-carboxylate], for which, in data set [1] (human, pooled human liver microsomes, probe midazolam (1′ hydroxylation), midazolam 1′ hydroxylation, read-out: In vitro IC50, direct inhibition, CYP3A4), the pIC50 is 4.89. The pIC50 in data set [1] (human, pooled human liver microsomes, probe testosterone (6β hydroxylation), testosterone 6β hydroxylation, read-out: In vitro IC50, direct inhibition, CYP3A4 (T)) was 4.64. In data set [1] (setting [6]), the “Calculated R1 Value, CYP3A4 (T)” value was <1.02 and the “R1gut, CYP3A4 (T)” value is recorded as “R1gut = 355”. For the same compound, the “In vitro substrate? CYP1A2” value in data set [2] is “No”. Further, in data set [3], the “Inhibition of OAT1 (in words)” value is recorded as “Neither rodatristat ethyl nor rodatristat inhibited” and the “Potential for interaction? (transporter inhibitor), OAT1” value is reported as “No”. In data set [4], the “Potential for interaction? (transporter inhibitor), MATE2-K” value was “No”. Also, in data set [5], the “Potential for interaction? (transporter inhibitor), MATE1” value is recorded as “No”.

As for `Nc1nc(O[C@H](c2ccc(Cl)cc2-c2ccccc2)C(F)(F)F)cc(N2CCC3(CC2)CN[C@H](C(=O)O)C3)n1` [Rodatristat, (S)-8-(2-amino-6-((R)-1-(5-chloro-[1,1′-biphenyl]-2-yl)-2,2,2-trifluoroeth-oxy)pyrimidin-4-yl)-2,8-diazaspiro[4.5]decane-3-carboxylic acid], the inhibition (in general, the percentage by which the read-out fell short of the control) at 30 µM is 27 to 45% in data set [1] (human, pooled human liver microsomes, 30 μM, range given across CYPs 2B6, 2C9 and 3A4/5); 30% in data set [5] (transporter-expressing in vitro system (MATE1), nominal 30 μM). Further, in data set [1] (human, pooled human liver microsomes, probe substrate not stated, read-out: IC50, CYP3A4/5), the pIC50 is < 4.52. Also, in data set [2], the “In vitro substrate? CYP1A2” value is on record as “No”. Also, in data set [3], the “Inhibition of OAT1 (in words)” value is given as “Neither rodatristat ethyl nor rodatristat inhibited”. In addition, the “Potential for interaction? (transporter inhibitor), OAT1” value in data set [3] is “No”. Also, the “Potential for interaction? (transporter inhibitor), MATE2-K” value in data set [4] is listed as “No”. The “Inhibition of MATE2-K (in words)” value in data set [4] (up to 30 μM nominal concentration) was “did not inhibit”. In addition, the “Potential for interaction? (transporter inhibitor), MATE1” value in data set [5] is “No^a”.

Source of the values: patent US20230074252A1, “DOSAGES AND METHODS FOR TREATING PULMONARY ARTERIAL HYPERTENSION WITH RODATRISTAT” (Altavant Sciences GmbH, priority 2020, published 2023).
